In brackets after ≈: the same amount, converted by molar mass. Read-outs that look alike come from different tables or passages of the source.
Experiments:
S. aureus DNA gyrase = target: T1, S. aureus DNA gyrase (Staphylococcus aureus, UniProt P0A0K8+P20831); assay: S. aureus DNA gyrase supercoiling assay (TopoGEN); assay type: biochemical
T1 construct: purchased TopoGEN
Method: Reactions were incubated at 37° C. for 30 min and then stopped by the addition of 10% SDS, filtered through 0.025 μm Millipore membrane filters in a 10 mM Tris-HCl buffer (pH 8), and electrophoresed in a 1% agarose TAE gel. Gels were stained with 0.5 μg/ml ethidium bromide and images were analyzed using densitometry (Image J, NIH).

S. aureus = assay: Minimum Inhibitory Concentration (MIC) testing, terfenadine study; assay type: cell-based; conditions: Staphylococcus aureus, 16 h
[1] = S. aureus, MHB, strain not given, read-out: MIC

T1 sequence (P0A0K8 whole entry): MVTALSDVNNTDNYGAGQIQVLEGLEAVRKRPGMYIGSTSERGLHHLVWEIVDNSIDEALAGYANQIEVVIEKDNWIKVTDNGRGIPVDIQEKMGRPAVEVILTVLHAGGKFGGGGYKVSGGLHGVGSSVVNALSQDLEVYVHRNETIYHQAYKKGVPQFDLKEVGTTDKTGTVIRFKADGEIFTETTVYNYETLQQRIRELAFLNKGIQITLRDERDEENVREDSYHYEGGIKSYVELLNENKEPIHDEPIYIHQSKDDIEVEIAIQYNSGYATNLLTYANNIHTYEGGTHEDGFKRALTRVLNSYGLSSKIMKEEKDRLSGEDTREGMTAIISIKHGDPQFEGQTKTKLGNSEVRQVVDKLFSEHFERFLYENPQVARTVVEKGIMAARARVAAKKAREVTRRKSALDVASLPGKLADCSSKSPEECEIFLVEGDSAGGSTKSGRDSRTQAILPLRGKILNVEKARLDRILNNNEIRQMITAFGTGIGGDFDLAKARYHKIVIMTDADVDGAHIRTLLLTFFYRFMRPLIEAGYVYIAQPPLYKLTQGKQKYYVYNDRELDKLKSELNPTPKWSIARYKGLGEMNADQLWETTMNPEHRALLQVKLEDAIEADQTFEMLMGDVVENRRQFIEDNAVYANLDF
T1 sequence (P20831 whole entry): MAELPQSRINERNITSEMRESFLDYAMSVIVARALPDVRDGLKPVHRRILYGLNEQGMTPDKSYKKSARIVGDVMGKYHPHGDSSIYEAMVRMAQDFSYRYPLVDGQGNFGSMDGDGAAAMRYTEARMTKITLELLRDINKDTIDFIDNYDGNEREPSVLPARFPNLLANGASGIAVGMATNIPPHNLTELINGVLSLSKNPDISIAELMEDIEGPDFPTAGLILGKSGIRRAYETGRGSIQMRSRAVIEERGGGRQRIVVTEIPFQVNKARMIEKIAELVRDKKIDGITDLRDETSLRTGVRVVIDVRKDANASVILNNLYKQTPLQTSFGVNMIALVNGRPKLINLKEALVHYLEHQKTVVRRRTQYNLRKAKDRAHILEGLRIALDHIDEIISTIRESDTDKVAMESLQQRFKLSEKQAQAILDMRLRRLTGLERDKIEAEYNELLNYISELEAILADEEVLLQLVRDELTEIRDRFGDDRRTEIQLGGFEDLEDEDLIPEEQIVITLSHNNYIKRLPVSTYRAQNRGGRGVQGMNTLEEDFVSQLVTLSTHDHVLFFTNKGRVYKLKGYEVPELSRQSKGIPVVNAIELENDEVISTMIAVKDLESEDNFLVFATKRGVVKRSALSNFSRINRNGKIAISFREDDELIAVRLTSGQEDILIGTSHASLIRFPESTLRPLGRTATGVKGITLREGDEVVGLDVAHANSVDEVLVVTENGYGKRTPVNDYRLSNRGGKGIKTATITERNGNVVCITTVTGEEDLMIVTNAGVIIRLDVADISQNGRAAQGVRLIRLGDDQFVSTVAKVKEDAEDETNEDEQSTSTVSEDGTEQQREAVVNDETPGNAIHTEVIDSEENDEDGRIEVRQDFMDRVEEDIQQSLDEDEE

SMILES	IC50 (S. aureus DNA gyrase) [µM]	MIC (S. aureus) [µg/mL]	MIC (S. aureus; [1]) [µg/mL]
CC(C)(C)c1ccc(C(O)CCCN2CCC(Cc3ccccc3)CC2)cc1 (centres unmarked) [Compound 40, 4-(4-Benzylpiperidin-1-yl)-1-(4-(tert-butyl)phenyl)butan-1-ol]	> 877	64 (≈ 169 µM)	–
OC(c1ccccc1)(c1ccccc1)C1CCN(CCc2ccc(-c3ccncc3)cc2)CC1 [Compound 33, Diphenyl(1-(4-(pyridin-4-yl)phenethyl)piperidin-4-yl)methanol]	208	32 (≈ 71.3 µM)	–
CC(C)(C)c1ccc(CCN2CCC(C(O)(c3ccccc3)c3ccccc3)CC2)cc1 [Compound 23, (1-(4-(Tert-butyl)phenethyl)piperidin-4-yl)diphenylmethanol]	218	8 (≈ 18.7 µM)	–
Cc1ccc(C(O)CCCN2CCC(C(O)(c3ccccc3)c3ccccc3)CC2)cc1 (centres unmarked) [Compound 14, 4-(4-(hydroxydiphenylmethyl)piperidin-1-yl)-1-(p-tolyl)butan-1-ol]	> 1160	128 (≈ 298 µM)	–
O=C(O)c1ccc(C(O)CCCN2CCC(C(O)(c3ccccc3)c3ccccc3)CC2)cc1 (centres unmarked) [Compound 19, 4-(1-hydroxy-4-(4-(hydroxydiphenylmethyl)piperidin-1-yl)butyl)benzoic acid]	> 1090	> 256	–
CC(C)(C)c1ccc(CCCCN2CCC(C(O)(c3ccccc3)c3ccccc3)CC2)cc1 [Compound 10, (1-(4-(4-(tert-butyl)phenyl)butyl)piperidin-4-yl)diphenylmethanol]	205	8 (≈ 17.6 µM)	–
OC(c1ccccc1)(c1ccccc1)C1CCN(CCc2ccc(-c3cccnc3)cc2)CC1 [Compound 35, Diphenyl(1-(4-(pyridin-3-yl)phenethyl)piperidin-4-yl)methanol]	557	32 (≈ 71.3 µM)	–
OC(c1ccccc1)(c1ccccc1)C1CCN(CCc2ccc(F)cc2)CC1 [Compound 38, (1-(4-Fluorophenethyl)piperidin-4-yl)diphenylmethanol]	> 855	128 (≈ 329 µM)	–
Nc1ccc(CCN2CCC(C(O)(c3ccccc3)c3ccccc3)CC2)cc1 [Compound 34, (1-(4-aminophenethyl)piperidin-4-yl)diphenylmethanol]	241	256 (≈ 662 µM)	–
OC(c1ccccc1)(c1ccccc1)C1CCN(CCc2ccc(Cl)cc2)CC1 [Compound 44, (1-(4-Chlorophenethyl)piperidin-4-yl)diphenylmethanol]	640	32 (≈ 78.8 µM)	–
CC(C)(C)c1ccc(CCCN2CCC(C(O)(c3ccccc3)c3ccccc3)CC2)cc1 [Compound 22, (1-(3-(4-(Tert-butyl)phenyl)propyl)piperidin-4-yl)diphenylmethanol]	211	8 (≈ 18.1 µM)	–
CC(C)(C)c1ccc(C(O)CCCCN2CCC(C(O)(c3ccccc3)c3ccccc3)CC2)cc1 (centres unmarked) [Compound 2, 1-(4-(tert-butyl)phenyl)-5-(4-(hydroxydiphenylmethyl)piperidin-1-yl)pentan-1-ol]	206	16 (≈ 32.9 µM)	–
CC(C)(C)c1ccc(C(=O)N2CCC(C(O)(c3ccccc3)c3ccccc3)CC2)cc1 [Compound 27, (4-(tert-butyl)phenyl)(4-(hydroxydiphenylmethyl)piperidin-1-yl)methanone]	218	> 256	–
OC(CCCN1CCC(C(O)(c2ccccc2)c2ccccc2)CC1)c1ccc(-c2ccccc2)cc1 (centres unmarked) [Compound 25, 1-([1,1′-biphenyl]-4-yl)-4-(4-(hydroxydiphenylmethyl)piperidin-1-yl)butan-1-ol]	27.1	8 (≈ 16.3 µM)	–
CC(C)(C)c1ccc(OCCCN2CCC(C(O)(c3ccccc3)c3ccccc3)CC2)cc1 [Compound 42, (1-(3-(4-(Tert-butyl)phenoxy)propyl)piperidin-4-yl)diphenylmethanol]	219	–	–
O=[N+]([O-])c1ccc(CCN2CCC(C(O)(c3ccccc3)c3ccccc3)CC2)cc1 [Compound 29, (1-(4-nitrophenethyl)piperidin-4-yl)diphenylmethanol]	632	64 (≈ 154 µM)	–
CC(C)(C)c1ccc(C(=O)CCN2CCC(C(O)(c3ccccc3)c3ccccc3)CC2)cc1 [Compound 21, 1-(4-(tert-butyl)phenyl)-3-(4-(hydroxydiphenylmethyl)piperidin-1-yl)propan-1-one]	198	32 (≈ 70.2 µM)	–
OC(c1ccccc1)(c1ccccc1)C1CCN(CCc2ccc(-c3ccccc3)cc2)CC1 [Compound 32, (1-(2-([1,1′-biphenyl]-4-yl)ethyl)piperidin-4-yl)diphenylmethanol]	179	–	8 (≈ 17.9 µM)
OC(c1ccccc1)(c1ccccc1)C1CCN(CCc2ccc(Br)cc2)CC1 [Compound 30, (1-(4-bromophenethyl)piperidin-4-yl)diphenylmethanol]	548	16 (≈ 35.5 µM)	–
CC(C)(C)c1ccc(NCCCN2CCC(C(O)(c3ccccc3)c3ccccc3)CC2)cc1 [Compound 41, (1-(3-((4-(Tert-butyl)phenyl)amino)propyl)piperidin-4-yl)diphenylmethanol]	423	8 (≈ 17.5 µM)	–
COc1ccc(CCN2CCC(C(O)(c3ccccc3)c3ccccc3)CC2)cc1 [Compound 28, (1-(4-methoxyphenethyl)piperidin-4-yl)diphenylmethanol]	> 829	256 (≈ 638 µM)	–
CC(C)(C)c1ccc(CN2CCC(C(O)(c3ccccc3)c3ccccc3)CC2)cc1 [Compound 26, (1-(4-(tert-butyl)benzyl)piperidin-4-yl)diphenylmethanol]	218	–	–
OC(CCCN1CCC(C(O)(c2ccccc2)c2ccccc2)CC1)c1ccc(Br)cc1 (centres unmarked) [Compound 9, 1-(4-bromophenyl)-4-(4-(hydroxydiphenylmethyl)piperidin-1-yl)butan-1-ol]	> 1010	32 (≈ 64.7 µM)	–
CN(C)c1ccc(CCN2CCC(C(O)(c3ccccc3)c3ccccc3)CC2)cc1 [Compound 36, (1-(4-(Dimethylamino)phenethyl)piperidin-4-yl)diphenylmethanol]	> 803	256 (≈ 617 µM)	–
OC(CCCN1CCC(C(O)(c2ccccc2)c2ccccc2)CC1)c1ccc(Cl)cc1 (centres unmarked) [Compound 4, 1-(4-chlorophenyl)-4-(4-(hydroxydiphenylmethyl)piperidin-1-yl)butan-1-ol]	296	64 (≈ 142 µM)	–
COC(=O)c1ccc(C(O)CCCN2CCC(C(O)(c3ccccc3)c3ccccc3)CC2)cc1 (centres unmarked) [Compound 18, Methyl 4-(1-hydroxy-4-(4-(hydroxydiphenylmethyl)piperidin-1-yl)butyl)benzoate]	929	256 (≈ 541 µM)	–
COc1ccc(C(O)CCCN2CCC(C(O)(c3ccccc3)c3ccccc3)CC2)cc1 (centres unmarked) [Compound 7, 4-(4-(hydroxydiphenylmethyl)piperidin-1-yl)-1-(4-methoxyphenyl)butan-1-ol]	> 1120	256 (≈ 575 µM)	–
OC(CCCN1CCC(C(O)(c2ccccc2)c2ccccc2)CC1)c1ccc(F)cc1 (centres unmarked) [Compound 8, 1-(4-fluorophenyl)-4-(4-(hydroxydiphenylmethyl)piperidin-1-yl)butan-1-ol]	> 1150	128 (≈ 295 µM)	–
CC(C)c1ccc(C(O)CCCN2CCC(C(O)(c3ccccc3)c3ccccc3)CC2)cc1 (centres unmarked) [Compound 1, 4-(4-(hydroxydiphenylmethyl)piperidin-1-yl)-1-(4-isopropylphenyl)butan-1-ol]	–	–	16 (≈ 35 µM)
CC(C)(C)c1ccc(C(O)CN2CCC(C(O)(c3ccccc3)c3ccccc3)CC2)cc1 (centres unmarked) [Compound 17, 1-(4-(tert-butyl)phenyl)-2-(4-(hydroxydiphenylmethyl)piperidin-1-yl)ethanol]	–	–	16 (≈ 36.1 µM)

From US10004701B2, “Methods and compositions for treating infection” (UNIVERSITY OF ROCHESTER, priority 2012, dated 2018)
